{"source": "ChEMBL document CHEMBL1201862", "about": "“PubChem BioAssay data set” (2004)", "key": {"[1]": {"experiment": "cytotoxicity in OV-90 ovarian cancer cells, dose response, PAX8 inhibitor project, cell-based, plate reader, dry powder, SA8 (AID 743149)", "type": "functional"}, "[2]": {"experiment": "IGROV1 ovarian cancer cell cytotoxicity, dose response, PAX8 inhibitor project, plate reader, dry powder samples (AID 743043)", "type": "functional, cell-based", "details": "IGROV-1"}, "[3]": {"experiment": "cytotoxicity dependent on PAX8, dose response, cell-based, plate reader, dry powder (AID 743049)", "type": "functional"}, "[4]": {"experiment": "cytotoxicity in OVCAR4 cells, dose response, cytotoxicity control for PAX8 inhibitor project, cell-based, plate reader, dry powder, SA11 (AID 743150)", "type": "functional", "details": "OVCAR-4"}, "[5]": {"experiment": "cytotoxicity in COV362 ovarian cancer cells, dose response, cytotoxicity control for PAX8 inhibitor project, cell-based, plate reader, dry powder, SA12 (AID 743144)", "type": "functional"}, "[6]": {"experiment": "cytotoxicity in COV434 cells, dose response, cytotoxicity control for PAX8 inhibitor project, cell-based, plate reader, dry powder, SA7 (AID 743145)", "type": "functional"}, "Beta-galactosidase": {"target": "Beta-galactosidase (Escherichia coli, UniProt Q8VNN2)", "sequence (Q8VNN2 whole entry)": "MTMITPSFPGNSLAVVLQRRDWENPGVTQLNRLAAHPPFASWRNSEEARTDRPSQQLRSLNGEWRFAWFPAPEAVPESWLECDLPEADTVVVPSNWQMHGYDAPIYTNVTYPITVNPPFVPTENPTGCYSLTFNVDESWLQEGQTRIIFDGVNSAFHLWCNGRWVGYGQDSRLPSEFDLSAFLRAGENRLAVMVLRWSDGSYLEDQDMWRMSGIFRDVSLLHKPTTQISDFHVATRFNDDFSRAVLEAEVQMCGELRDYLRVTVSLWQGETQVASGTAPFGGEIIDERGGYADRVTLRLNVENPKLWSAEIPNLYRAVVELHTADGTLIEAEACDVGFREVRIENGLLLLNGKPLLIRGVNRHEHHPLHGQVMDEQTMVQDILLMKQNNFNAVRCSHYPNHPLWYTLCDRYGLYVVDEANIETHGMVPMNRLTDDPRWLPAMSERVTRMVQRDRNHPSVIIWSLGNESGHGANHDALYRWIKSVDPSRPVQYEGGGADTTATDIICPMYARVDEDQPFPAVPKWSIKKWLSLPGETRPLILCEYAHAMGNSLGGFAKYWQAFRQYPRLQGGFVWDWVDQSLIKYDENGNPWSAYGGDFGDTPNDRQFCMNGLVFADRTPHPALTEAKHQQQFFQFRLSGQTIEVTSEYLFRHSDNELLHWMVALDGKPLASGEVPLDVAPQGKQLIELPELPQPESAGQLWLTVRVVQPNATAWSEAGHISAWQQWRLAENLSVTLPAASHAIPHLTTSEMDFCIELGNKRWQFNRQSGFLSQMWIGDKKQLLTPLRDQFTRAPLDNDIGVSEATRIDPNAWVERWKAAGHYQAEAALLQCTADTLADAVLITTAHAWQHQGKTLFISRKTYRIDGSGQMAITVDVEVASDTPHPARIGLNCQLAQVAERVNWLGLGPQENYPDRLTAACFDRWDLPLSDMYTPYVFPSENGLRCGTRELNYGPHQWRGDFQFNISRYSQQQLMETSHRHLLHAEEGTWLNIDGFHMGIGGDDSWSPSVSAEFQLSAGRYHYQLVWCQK", "experiment": "Dose response counterscreen for EBI2 assay utilizing the enzyme, b-galactosidase.", "type": "functional"}, "[7]": {"experiment": "PAX2 cell-based inhibition, dose response, selectivity assay for PAX8 inhibitor project, plate reader, dry powder samples (AID 743048);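 note: HEK293 cells carrying a WT1 promoter luciferase reporter driven by expressed Pax2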", "type": "functional"}, "Paired box protein Pax-8": {"target": "Paired box protein Pax-8 (Homo sapiens, UniProt Q06710)", "sequence (Q06710 whole entry)": "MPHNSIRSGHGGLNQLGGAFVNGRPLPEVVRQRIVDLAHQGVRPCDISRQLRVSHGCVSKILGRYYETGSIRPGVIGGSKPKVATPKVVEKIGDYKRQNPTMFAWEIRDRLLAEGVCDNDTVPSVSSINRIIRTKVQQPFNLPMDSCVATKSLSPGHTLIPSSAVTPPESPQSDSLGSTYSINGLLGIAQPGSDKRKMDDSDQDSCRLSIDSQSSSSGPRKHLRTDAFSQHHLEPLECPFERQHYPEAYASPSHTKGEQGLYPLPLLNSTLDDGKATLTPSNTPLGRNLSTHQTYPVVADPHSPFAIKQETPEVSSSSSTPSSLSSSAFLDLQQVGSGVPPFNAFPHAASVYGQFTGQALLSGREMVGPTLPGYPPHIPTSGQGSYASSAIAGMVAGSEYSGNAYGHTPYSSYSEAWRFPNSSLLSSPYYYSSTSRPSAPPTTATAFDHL", "experiment": "inhibitors of PAX8-driven TPO luciferase reporter, dose response, RMG-I cells, cherry-pick (AID 687027)", "type": "functional, cell-based"}, "[8]": {"experiment": "NIH:OVCAR-3 ovarian cancer cell cytotoxicity, dose response, PAX8 inhibitor project, plate reader, dry powder samples (AID 743044)", "type": "functional, cell-based"}, "CHO": {"test_system": "CHO", "experiment": "cytotoxicity in TLR9-MyD88 CHO cells, dose response, cytotoxicity control for TLR9-MyD88 binding inhibitor project, cell-based, luminescence (AID 588339);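 note: CHO cells stably coexpressing TLR9 and MyD88 fusions from primary screen; compound exposure lasted 48 hours before viability readout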", "type": "functional, hamster", "details": "Cricetulus griseus"}, "[9]": {"target": "Photoreceptor-specific nuclear receptor (Homo sapiens, UniProt Q9Y5X4)", "sequence (Q9Y5X4 whole entry)": "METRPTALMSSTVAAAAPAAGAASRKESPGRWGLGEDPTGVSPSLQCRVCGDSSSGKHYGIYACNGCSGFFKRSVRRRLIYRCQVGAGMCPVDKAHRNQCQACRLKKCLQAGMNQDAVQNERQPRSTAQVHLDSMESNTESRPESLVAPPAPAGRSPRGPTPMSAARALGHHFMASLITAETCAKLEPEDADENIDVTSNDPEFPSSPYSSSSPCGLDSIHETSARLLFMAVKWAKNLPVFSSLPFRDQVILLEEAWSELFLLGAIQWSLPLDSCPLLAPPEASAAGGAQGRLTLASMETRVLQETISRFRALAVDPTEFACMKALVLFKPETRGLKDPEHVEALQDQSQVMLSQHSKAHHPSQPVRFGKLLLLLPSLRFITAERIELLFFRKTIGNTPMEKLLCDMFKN", "type": "functional, cell-based"}, "Beta Lactamase": {"target": "Beta Lactamase (Pseudomonas aeruginosa, UniProt Q932Y6)", "sequence (Q932Y6 whole entry)": "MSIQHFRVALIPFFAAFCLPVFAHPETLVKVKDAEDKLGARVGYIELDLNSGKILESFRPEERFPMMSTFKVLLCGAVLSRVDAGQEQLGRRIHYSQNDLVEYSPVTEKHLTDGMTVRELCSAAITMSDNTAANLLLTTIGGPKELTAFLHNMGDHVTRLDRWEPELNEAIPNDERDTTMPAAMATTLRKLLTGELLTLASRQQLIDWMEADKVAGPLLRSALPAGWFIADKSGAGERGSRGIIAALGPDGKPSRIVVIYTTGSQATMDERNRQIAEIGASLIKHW", "experiment": "beta-lactamase reporter inhibitor potency, dose response, artefact control for TLR9-MyD88 binding inhibitor project, BLA reporter cells, FRET fluorescence (AID 588341);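 note: cell based assay in CHO-K1 cells stably expressing beta-lactamase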", "type": "cell-based"}, "[10]": {"experiment": "Late stage assay provider counterscreen for TLR9 inhibitors: absorbance-based cell-based MTT cytotoxicity assay.", "type": "functional"}, "[11]": {"experiment": "inhibitors of fibronectin matrix deposition, dose response, AH1F cells, Alexa488-FN fluorescence, cherry-picks (AID 1035475)", "type": "functional, cell-based"}, "[12]": {"experiment": "HeLa cell cytotoxicity, dose response, cytotoxicity control, 24 h, plate reader, powder samples, set 3 (AID 651864)", "type": "functional, cell-based"}, "[13]": {"experiment": "cytotoxicity in HeLa cells, dose response, cytotoxicity control, cell-based, 24 h, dry powder, set 2 (AID 651774)", "type": "functional"}, "[14]": {"experiment": "HEK293T cell cytotoxicity, dose response, cytotoxicity control, CellTiter-Glo luminescence, dry powder, set 6 (AID 651949)", "type": "functional, cell-based", "details": "HEK293"}, "[15]": {"experiment": "inhibitors of non-replicating M. tuberculosis, dose response, luciferase, dry powder (AID 651619)", "type": "functional", "details": "Mycobacterium tuberculosis"}, "[16]": {"experiment": "cytotoxicity in HeLa cells, dose response, cytotoxicity control, cell-based, plate reader, dry powder (AID 651946)", "type": "functional"}, "[17]": {"experiment": "inhibitors of non-replicating M. tuberculosis, dose response, luciferase, dry powder (AID 651620)", "type": "functional", "details": "Mycobacterium tuberculosis"}, "[18]": {"experiment": "growth inhibition of replicating M. tuberculosis, dose response, counter-screen, dry powder, IC90 (AID 651617)", "type": "functional", "details": "Mycobacterium tuberculosis"}, "[19]": {"experiment": "Mycobacterium tuberculosis BioA enzyme inhibitor Measured in Biochemical System Using Plate Reader - 2163-02_Inhibitor_Dose_DryPowder_Activity."}, "[20]": {"experiment": "cytotoxicity in primary human melanocytes, dose response, cytotoxicity control, cell-based, plate reader, dry powder (AID 651920)", "type": "functional"}, "[21]": {"experiment": "TRPM1 promoter luciferase reporter signal decrease, dose response, MITF inhibitor project, cell-based, SK-MEL-5, dry powder, set 8 (AID 624430)", "type": "functional"}, "[22]": {"experiment": "SK-MEL-5 parental cell viability reduction, dose response, orthogonal assay for MITF inhibitor project, CellTiter-Glo luminescence, dry powder, set 8 (AID 651586)", "type": "functional, cell-based"}, "[23]": {"experiment": "MITF: Counter assay: A375 proliferation Measured in Cell-Based System Using Plate Reader - 2084-03_Inhibitor_Dose_DryPowder_Activity_Set8.", "type": "functional", "details": "A-375"}, "[24]": {"experiment": "A375 melanoma cell viability loss, dose response, counter-screen for MITF modulator project, CellTiter-Glo luminescence, dry powder, set 9 (AID 651591)", "type": "functional, cell-based", "details": "A-375"}, "[25]": {"experiment": "MITF Orthogonal Assay: MALME3 CTG Assay Measured in Cell-Based System Using Plate Reader - 2084-04_Inhibitor_Dose_DryPowder_Activity_Set6.", "type": "functional", "details": "MALME-3"}, "[26]": {"experiment": "MITF Orthogonal Assay: SK-MEL-5 CTG Assay Measured in Cell-Based System Using Plate Reader - 2084-02_Inhibitor_Dose_DryPowder_Activity_Set7.", "type": "functional"}, "[27]": {"experiment": "MALME3 melanoma cell viability reduction, dose response, orthogonal assay for MITF inhibitor project, CellTiter-Glo luminescence, dry powder, set 5 (AID 651584)", "type": "functional, cell-based", "details": "MALME-3"}, "[28]": {"experiment": "P. falciparum ATP4 D1247Y mutant growth inhibitors, dose response, NITD609-resistant line, SYBR Green, dry powder (AID 1159571);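 note: parasites synchronized at ring stage by sorbitol before testing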", "type": "functional, cell-based"}, "[29]": {"experiment": "YAP1 pathway inhibition via CTGF transcript levels, dose response, cell-based, DLD1 colon cancer, RT-qPCR, cherry-pick (AID 1053122)", "type": "functional", "details": "Cancer cell lines"}, "[30]": {"experiment": "HepG2 cell cytotoxicity, dose response, cytotoxicity control, plate reader, dry powder samples (AID 1159569);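 note: inhibitor potency with signal falling toward the positive control level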", "type": "functional, cell-based"}, "[31]": {"experiment": "HepG2 cell cytotoxicity, dose response, cytotoxicity control, cherry-picked samples (AID 1159577)", "type": "functional, cell-based"}, "[32]": {"experiment": "P. falciparum 3D7-ScDHODH growth inhibitors, dose response, SYBR Green, dry powder samples (AID 1159570);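 note: parasite growth measured after 72 hours of compound exposure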", "type": "functional, cell-based"}, "[33]": {"experiment": "P. falciparum Dd2 growth inhibitors, dose response, SYBR Green, cherry-picked samples (AID 1159567)", "type": "functional, cell-based"}, "[34]": {"experiment": "P. falciparum Dd2 growth inhibitors, dose response, SYBR Green, dry powder samples (AID 1159566);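 note: potency for growth inhibition with lower SYBR green DNA signal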", "type": "functional, cell-based"}, "[35]": {"experiment": "Late stage assay provider results from the probe development effort to identify selective inhibitors of heat shock protein 90 (HSP90): Absorbance-based cell proliferation assay in MCF7 cells.", "type": "functional"}, "[36]": {"experiment": "Late stage assay provider results from the probe development effort to identify selective inhibitors of heat shock protein 90 (HSP90): Absorbance-based cell proliferation assay in SKBR3 cells.", "type": "functional", "details": "SK-BR-3"}, "[37]": {"experiment": "P. falciparum Dd2 growth inhibitors, dose response, SYBR Green, dry powder samples, set 9 (AID 1159568)", "type": "functional, cell-based"}, "[38]": {"experiment": "cytotoxicity in HEK293 cells, dose response, cytotoxicity control, cell-based, cherry-picked samples (AID 1053185)", "type": "functional"}, "[39]": {"experiment": "Late stage assay provider results from the probe development effort to identify inhibitors of the Plasmodium falciparum M18 Aspartyl Aminopeptidase (M18AAP): radiolabel-based cell-based dose response assay to identify compounds that inhibit P. falciparum growth in RBCs, Set 2..", "type": "functional"}}, "note": "Activity calls are given as the source filed them."}
{"compound": "O=C(c1cc(-c2cccs2)on1)N1CCN(C(c2ccccc2)c2ccccc2)CC1", "values": [{"measurement": "AC50", "setting": "[1]", "result": "> 100 µM (inactive)"}, {"measurement": "AC50", "setting": "[2]", "result": "44.1 µM (active)"}, {"measurement": "AC50", "setting": "[3]", "result": "9.18 µM (active)"}, {"measurement": "AC50", "setting": "[4]", "result": "44.4 µM (active)"}, {"measurement": "AC50", "setting": "[5]", "result": "48.4 µM (active)"}, {"measurement": "AC50", "setting": "[6]", "result": "80.1 µM (active)"}, {"measurement": "IC50", "setting": "Beta-galactosidase", "result": "> 80 µM (inactive)"}, {"measurement": "AC50", "setting": "[7]", "result": "49.9 µM (active)"}, {"measurement": "AC50", "setting": "Paired box protein Pax-8", "result": "0.733 µM (active)"}, {"measurement": "AC50", "setting": "[8]", "result": "60.2 µM (active)"}]}
{"compound": "O=S(=O)(/C=C/C=C/S(=O)(=O)c1ccccc1)c1ccccc1", "values": [{"measurement": "IC50", "setting": "CHO", "result": "0.959 µM (active)"}, {"measurement": "IC50", "setting": "[9]", "result": "1.61 µM (active)"}, {"measurement": "IC50", "setting": "Beta Lactamase", "result": "> 49.8 µM (inactive)"}, {"measurement": "CC50", "setting": "[10]", "result": "0.59 µM (active)"}]}
{"compound": "CC(=O)Nc1cccc(-c2ccnc3c2CC(C)(C(=O)Nc2cccc(C(F)(F)F)c2)O3)c1", "note": "(stereo not drawn)", "values": [{"measurement": "AC50", "setting": "[11]", "result": "22.7 µM (active)"}]}
{"compound": "CCC(CC)NC(=O)Cc1ccc(-c2ccccc2)cc1", "values": [{"measurement": "AC50", "setting": "[12]", "result": "> 160 µM (inactive)"}, {"measurement": "AC50", "setting": "[13]", "result": "> 70 µM (inactive)"}]}
{"compound": "COc1cccc(-c2nnc(SCc3ccccn3)o2)c1", "values": [{"measurement": "AC50", "setting": "[14]", "result": "> 52 µM (inactive)"}, {"measurement": "IC90", "setting": "[15]", "result": "4 µM (active)"}, {"measurement": "AC50", "setting": "[16]", "result": "> 52 µM (inactive)"}, {"measurement": "IC90", "setting": "[17]", "result": "4 µM (active)"}, {"measurement": "IC90", "setting": "[18]", "result": "125 µM (active)"}]}
{"compound": "O=C(Nc1cccnc1)N1CCN(c2ccccc2)CC1", "values": [{"measurement": "AC50", "setting": "[19]", "result": "13 µM (active)"}]}
{"compound": "Cc1ccc(NC2=CC(=O)c3ccccc3C2=O)cc1", "values": [{"measurement": "AC50", "setting": "[20]", "result": "> 70 µM (inactive)"}, {"measurement": "AC50", "setting": "[21]", "result": "6.58 µM (active)"}, {"measurement": "AC50", "setting": "[22]", "result": "36.1 µM (active)"}, {"measurement": "AC50", "setting": "[23]", "result": "> 70 µM (inactive)"}, {"measurement": "AC50", "setting": "[24]", "result": "> 70 µM (inactive)"}, {"measurement": "AC50", "setting": "[25]", "result": "13.5 µM (active)"}, {"measurement": "AC50", "setting": "[26]", "result": "1.24 µM (active)"}, {"measurement": "AC50", "setting": "[27]", "result": "13.5 µM (active)"}]}
{"compound": "C[C@@H]1CN([C@H](C)CO)C(=O)c2c(c3ccccc3n2C)-c2ccccc2CO[C@@H]1CN(C)Cc1cccc(C(F)(F)F)c1", "values": [{"measurement": "AC50", "setting": "[28]", "result": "2.09 µM (active)"}, {"measurement": "AC50", "setting": "[29]", "result": "14.3 µM (active)"}, {"measurement": "AC50", "setting": "[30]", "result": "19.6 µM (active)"}, {"measurement": "AC50", "setting": "[31]", "result": "27.2 µM (active)"}, {"measurement": "AC50", "setting": "[32]", "result": "3.38 µM (active)"}, {"measurement": "AC50", "setting": "[33]", "result": "1.87 µM (active)"}, {"measurement": "AC50", "setting": "[34]", "result": "1.28 µM (active)"}]}
{"compound": "O=c1oc2ccc(OCCc3ccc(F)cc3)cc2cc1Br", "values": [{"measurement": "IC50", "setting": "[35]", "result": "> 100 µM (inactive)"}, {"measurement": "IC50", "setting": "[36]", "result": "91.7 µM (inactive)"}]}
{"compound": "C[C@H](CO)N1C[C@H](C)[C@@H](CN(C)Cc2ccccc2)Oc2c(NC(=O)Cc3cn(C)c4ccccc34)cccc2C1=O", "values": [{"measurement": "AC50", "setting": "[37]", "result": "1.97 µM (active)"}, {"measurement": "AC50", "setting": "[38]", "result": "40.1 µM (active)"}]}
{"compound": "COc1ccc(CCNc2ccnc3cc(Cl)ccc23)cc1OC", "values": [{"measurement": "IC50", "setting": "[39]", "result": "0.66 µM (active)"}]}
